These results are taken from paper PMC4263137, “Positron emission tomography and functional characterization of a complete PBR/TSPO knockout” (Nature Communications, 2014).

For this assay, the target named is T1, PBR/TSPO (18-kDa translocator protein) (Mus musculus, UniProt P50637).
T1 construct: native protein in kidney and testis membranes of Tspo+/+ mice
Kind of assay: [3H]PK11195 saturation radioligand binding on tissue membranes; autoradiography; no binding in Tspo-/- mice.

T1 sequence (P50637 whole entry): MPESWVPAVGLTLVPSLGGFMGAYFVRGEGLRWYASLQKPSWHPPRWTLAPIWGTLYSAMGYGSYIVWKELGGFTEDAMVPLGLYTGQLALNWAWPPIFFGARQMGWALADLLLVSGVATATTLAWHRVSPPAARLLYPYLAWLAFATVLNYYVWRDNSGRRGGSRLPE

Regarding `CCC(C)N(C)C(=O)c1cc2ccccc2c(-c2ccccc2Cl)n1` (stereo not shown) [PK11195, 1-(2-chlorophenyl)-N-methyl-(1-methylpropyl)-3 isoquinolinecarboxamide], the Kd (in general, the constant that tells how readily two partners part at equilibrium) came out at 0.0129 µM. In other words, the double-digit nanomolar range.
